Assay results as given in patent US9453026B2, “ACC inhibitors and uses thereof” (Gilead Apollo, Inc., priority 2011, dated 2016).

Biological target: ACC1 (Homo sapiens, UniProt Q13085)
Assay: In vitro ACC1 inhibition assay (ADP-Glo)
Type: biochemical
Conditions: read-out: ACC1
Experimental: An exemplary procedure for the in vitro ACC inhibition assay, which can be used to determine the inhibitory action of compounds of the invention toward either ACC1 or ACC2, follows. The ADP-Glo™ Kinase Assay kit from Promega was used. The ADP-Glo™ Kinase Assay is a luminescent ADP detection assay to measure enzymatic activity by quantifying the amount of ADP produced during an enzyme reaction. The assay is performed in two steps; first, after the enzyme reaction, an equal volume of ADP-Glo™ Reagent is added to terminate the reaction and deplete the remaining ATP. Second, the Kinase Detection Reagent is added to simultaneously convert ADP to ATP and allow the newly synthesized ATP to be measured using a luciferase/luciferin reaction. Luminescence can be correlated to ADP concentrations by using an ATP-to-ADP conversion curve. The detailed procedure is as follows. 50 μL of the compound being tested (600 uM in DMSO) was added to a 384-well dilution plate. The compound was diluted 1:3 in succession in DMSO for each row for 11 wells. 0.5 μL ACC2 working solution was added to 384-well white Optiplate assay plate. 0.5 μL diluted compound solution in each column from step 2 to assay plate, each row containing 2 replicates. […] The plates were incubated at room temperature for 15 minutes. 5 μL substrate working solution was added to each well to initiate reaction. […] Plates were incubated at room temperature for 60 minutes. 10 μL ADP glo reagent was added. Plates were incubated at room temperature for 40 minutes. 20 μL kinase detection reagent was added.
Data for each concentration, as well as the positive and negative controls were averaged, and the standard deviation calculated. Percent inhibition was calculated by the formula: 100× (average negative control−compound)/(average negative control−average positive control). The IC50 for each compound was calculated by fitting the data with a non-linear regression equation: Y=Bottom+(Top-Bottom)/(1+10^((Log IC50−X)*HillSlope)), where X is the log of compound concentration and Y is percent inhibition.
The compound numbers correspond to the compound numbers in Table 1.

Which IC50 does the source give for `Cc1c(-c2ncco2)sc2c1c(=O)n(C(C)(C)C(=O)O)c(=O)n2C[C@H](OC1CCOCC1)c1ccccc1O` [I-273, 2-[1-[(2R)-2-(2-hydroxyphenyl)-2-(oxan-4-yloxy)ethyl]-5-methyl-6-(1,3-oxazol-2-yl)-2,4-dioxo-1H,2H,3H,4H-thieno[2,3-d]pyrimidin-3-yl]-2-methylpropanoic acid] here?
The IC50 was less than 0.1 µM.

Which IC50 does the source give for `Cc1c(-c2ncco2)sc2c1c(=O)n(C(C)(C)C(=O)N1CCC1)c(=O)n2C[C@H](OC1CCOCC1)c1ccccc1Cl` [I-253, 3-[1-(azetidin-1-yl)-2-methyl-1-oxopropan-2-yl]-1-[(2R)-2-(2-chlorophenyl)-2-(oxan-4-yloxy)ethyl]-5-methyl-6-(1,3-oxazol-2-yl)-1H,2H,3H,4H-thieno[2,3-d]pyrimidine-2,4-dione] here?
Its IC50 is less than 1 µM.

For `Cc1c(-c2ncco2)sc2c1c(=O)n(C(C)(C)C(N)=O)c(=O)n2C[C@H](OC1CCOCC1)c1ccccc1O` [I-283, 2-[1-[(2R)-2-(2-hydroxyphenyl)-2-(oxan-4-yloxy)ethyl]-5-methyl-6-(1,3-oxazol-2-yl)-2,4-dioxo-1H,2H,3H,4H-thieno[2,3-d]pyrimidin-3-yl]-2-methylpropanamide], which IC50 is on record?
The IC50 was less than 0.1 µM.

Biological target: ACC2 (Homo sapiens, UniProt O00763)
Sequence (O00763 whole entry, species assumed): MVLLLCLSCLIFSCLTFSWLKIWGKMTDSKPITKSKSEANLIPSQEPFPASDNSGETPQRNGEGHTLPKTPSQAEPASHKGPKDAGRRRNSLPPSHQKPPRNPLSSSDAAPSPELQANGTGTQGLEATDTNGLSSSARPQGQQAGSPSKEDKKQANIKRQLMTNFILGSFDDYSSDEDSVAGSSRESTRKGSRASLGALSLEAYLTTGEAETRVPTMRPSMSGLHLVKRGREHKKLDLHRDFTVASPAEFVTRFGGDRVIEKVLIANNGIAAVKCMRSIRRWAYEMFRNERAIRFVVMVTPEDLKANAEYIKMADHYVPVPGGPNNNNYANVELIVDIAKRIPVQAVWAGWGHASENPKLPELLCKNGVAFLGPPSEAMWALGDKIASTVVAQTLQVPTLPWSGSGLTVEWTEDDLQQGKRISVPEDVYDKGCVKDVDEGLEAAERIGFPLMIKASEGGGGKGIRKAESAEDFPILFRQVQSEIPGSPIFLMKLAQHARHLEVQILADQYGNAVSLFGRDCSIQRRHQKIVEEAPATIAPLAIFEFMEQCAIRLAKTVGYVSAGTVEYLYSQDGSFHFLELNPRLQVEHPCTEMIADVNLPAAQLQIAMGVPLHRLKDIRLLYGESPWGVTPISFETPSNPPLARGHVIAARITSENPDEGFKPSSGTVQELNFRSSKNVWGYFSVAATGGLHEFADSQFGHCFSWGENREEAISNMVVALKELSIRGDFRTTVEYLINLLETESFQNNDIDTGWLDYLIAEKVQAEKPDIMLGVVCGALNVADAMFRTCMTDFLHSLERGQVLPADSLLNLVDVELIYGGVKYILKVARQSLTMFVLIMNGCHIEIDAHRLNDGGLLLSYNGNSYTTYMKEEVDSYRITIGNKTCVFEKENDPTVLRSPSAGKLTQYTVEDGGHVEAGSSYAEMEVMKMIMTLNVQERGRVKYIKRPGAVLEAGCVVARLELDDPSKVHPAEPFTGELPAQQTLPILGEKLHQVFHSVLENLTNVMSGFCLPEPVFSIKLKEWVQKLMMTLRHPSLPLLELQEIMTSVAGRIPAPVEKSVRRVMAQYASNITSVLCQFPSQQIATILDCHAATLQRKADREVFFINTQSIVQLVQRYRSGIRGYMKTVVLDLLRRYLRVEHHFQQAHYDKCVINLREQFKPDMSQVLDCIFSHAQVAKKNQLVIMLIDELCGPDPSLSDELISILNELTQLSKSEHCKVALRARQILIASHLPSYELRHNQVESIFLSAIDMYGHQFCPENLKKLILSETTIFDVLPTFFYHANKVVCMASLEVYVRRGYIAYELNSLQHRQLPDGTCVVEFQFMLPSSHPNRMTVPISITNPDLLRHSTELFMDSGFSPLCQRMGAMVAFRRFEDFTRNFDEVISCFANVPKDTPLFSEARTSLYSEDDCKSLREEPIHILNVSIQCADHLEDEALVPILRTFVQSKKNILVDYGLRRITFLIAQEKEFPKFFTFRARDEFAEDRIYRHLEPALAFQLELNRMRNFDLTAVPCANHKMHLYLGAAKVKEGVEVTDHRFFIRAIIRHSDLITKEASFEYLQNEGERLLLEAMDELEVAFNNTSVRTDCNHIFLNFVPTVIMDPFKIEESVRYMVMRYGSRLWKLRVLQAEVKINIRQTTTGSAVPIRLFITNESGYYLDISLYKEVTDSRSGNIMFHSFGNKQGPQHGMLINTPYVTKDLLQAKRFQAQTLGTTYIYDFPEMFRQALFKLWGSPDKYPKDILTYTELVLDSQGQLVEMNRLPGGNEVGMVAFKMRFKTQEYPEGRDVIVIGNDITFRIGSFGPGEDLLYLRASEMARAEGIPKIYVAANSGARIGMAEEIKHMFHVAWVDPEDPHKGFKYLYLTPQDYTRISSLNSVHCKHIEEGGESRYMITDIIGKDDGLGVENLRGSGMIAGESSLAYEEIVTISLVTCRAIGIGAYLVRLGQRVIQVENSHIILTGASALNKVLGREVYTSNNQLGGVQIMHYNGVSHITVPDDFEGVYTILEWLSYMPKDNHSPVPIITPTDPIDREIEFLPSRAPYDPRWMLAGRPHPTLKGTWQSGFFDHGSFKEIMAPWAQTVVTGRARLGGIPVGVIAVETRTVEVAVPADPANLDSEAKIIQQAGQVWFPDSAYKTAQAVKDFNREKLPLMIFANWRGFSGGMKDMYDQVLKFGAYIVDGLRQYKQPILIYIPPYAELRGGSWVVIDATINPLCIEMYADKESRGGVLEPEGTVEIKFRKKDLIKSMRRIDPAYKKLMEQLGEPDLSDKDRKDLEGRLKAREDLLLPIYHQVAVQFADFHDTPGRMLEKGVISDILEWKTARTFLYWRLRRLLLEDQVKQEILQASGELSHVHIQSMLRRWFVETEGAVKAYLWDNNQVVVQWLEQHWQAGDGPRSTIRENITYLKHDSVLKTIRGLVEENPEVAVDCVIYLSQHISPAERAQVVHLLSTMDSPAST
Assay: In vitro ACC2 inhibition assay (ADP-Glo)
Type: biochemical
Conditions: read-out: ACC2
In short: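 Enzyme (human ACC1 or ACC2) and compound, serially diluted 1:3 over 11 points from a 600 uM DMSO stock, were preincubated 15 min before substrate addition.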

With `CCOC(=O)c1sc2c(c1C)c(=O)n(CC(=O)NCCO)c(=O)n2CCc1ccccc1` [I-48, ethyl 3-[[(2-hydroxyethyl)carbamoyl]methyl]-5-methyl-2,4-dioxo-1-(2-phenylethyl)-1H,2H,3H,4H-thieno[2,3-d]pyrimidine-6-carboxylate] as the compound, how does the IC50 read?
Its IC50 is 5 to 20 µM.

With `Cc1c(-c2ncco2)sc2c1c(=O)n(C(C)(C)C(=O)O)c(=O)n2C[C@H](OC[C@H](C)CO)c1ccccc1` [I-170, 2-(1-((R)-2-((R)-3-hydroxy-2-methylpropoxy)-2-phenylethyl)-5-methyl-6-(oxazol-2-yl)-2,4-dioxo-1,2-dihydrotheno[2,3-d]pyrimidin-3(4H)-yl)-2-methylpropanoic acid] as the compound, how does the IC50 read?
The IC50 was less than 1 µM.

Which IC50 does the source give for `CCOC(=O)c1sc2c(c1C)c(=O)n(CC#N)c(=O)n2CCc1ccccc1` [I-43] here?
Its IC50 is 5 to 20 µM.

Which IC50 does the source give for `CCOC(=O)c1sc2c(c1C)c(=O)n(C(C)(C)C(=O)O)c(=O)n2C[C@@H](OC(C)C)c1ccc(I)cc1` [I-126] here?
Its IC50 is 20 to 50 µM.

`Cc1c(-c2ncco2)sc2c1c(=O)n(C(C)(C)C(=O)O)c(=O)n2C[C@@H](Oc1ccc(F)cc1)c1ccccc1` [I-150, (S)-2-(1-(2-(4-fluorophenoxy)-2-phenylethyl)-5-methyl-6-(oxazol-2-yl)-2,4-dioxo-1,2-dihydrotheno[2,3-d]pyrimidin-3(4H)-yl)-2-methylpropanoic acid] was tested. Which IC50 did it give?
The IC50 was 5 to 20 µM.

`CCOC(=O)c1sc2c(c1C)c(=O)n(CS(C)(=O)=O)c(=O)n2CCc1ccccc1` [I-72] was tested. Which IC50 did it give?
Its IC50 is greater than 50 µM.

`Cc1c(-c2ncco2)sc2c1c(=O)n(CC(=O)O)c(=O)n2CCc1ccccc1` [I-92, 2-[5-methyl-6-(1,3-oxazol-2-yl)-2,4-dioxo-1-(2-phenylethyl)-1H,2H,3H,4H-thieno[2,3-d]pyrimidin-3-yl]acetic acid] was tested. Which IC50 did it give?
The IC50 was less than 5 µM.

How did the IC50 turn out when `CCCOC(=O)c1sc2c(c1C)c(=O)n(CCO)c(=O)n2CCc1ccccc1` [I-41, propyl 3-(2-hydroxyethyl)-5-methyl-2,4-dioxo-1-(2-phenylethyl)-1H,2H,3H,4H-thieno[2,3-d]pyrimidine-6-carboxylate] was run?
The IC50 was greater than 50 µM.

How did the IC50 turn out when `CCOC(=O)c1sc2c(c1C)c(=O)n(CC(=O)O)c(=O)n2Cc1ccc2[nH]ccc2c1` [I-90, 2-[6-(ethoxycarbonyl)-1-(1H-indol-5-ylmethyl)-5-methyl-2,4-dioxo-1H,2H,3H,4H-thieno[2,3-d]pyrimidin-3-yl]acetic acid] was run?
Its IC50 is 20 to 50 µM.

`CCOC(=O)c1sc2c(c1C)c(=O)n(CCOCc1ccccc1)c(=O)n2CCc1ccccc1` [I-10, ethyl 3-[2-(benzyloxy)ethyl]-5-methyl-2,4-dioxo-1-(2-phenylethyl)-1H,2H,3H,4H-thieno[2,3-d]pyrimidine-6-carboxylate] was tested. Which IC50 did it give?
Its IC50 is greater than 50 µM.

Which IC50 does the source give for `Cc1c(-c2ncco2)sc2c1c(=O)n(C(C)(C)C(=O)O)c(=O)n2C[C@@H](Oc1ccc(-n2ccnc2)cc1)c1ccccc1` [I-161, 2-[1-[(2S)-2-[4-(1H-Imidazol-1-yl)phenoxy]-2-phenylethyl]-5-methyl-6-(1,3-oxazol-2-yl)-2,4-dioxo-1H,2H,3H,4H-thieno[2,3-d]pyrimidin-3-yl]-2-methylpropanoic acid] here?
The IC50 was less than 5 µM.

With `CCOC(=O)c1sc2c(c1C)c(=O)n(CCO)c(=O)n2CCCc1ccccc1` [I-12] as the compound, how does the IC50 read?
The IC50 was greater than 50 µM.

With `Cc1c(C2CC2)sc2c1c(=O)n(C(C)(C)C(=O)O)c(=O)n2CCc1ccccc1` [I-132, 2-[6-cyclopropyl-5-methyl-2,4-dioxo-1-(2-phenylethyl)-1H,2H,3H,4H-thieno[2,3-d]pyrimidin-3-yl]-2-methylpropanoic acid] as the compound, how does the IC50 read?
The IC50 was 20 to 50 µM.

For `Cc1c(-c2ncco2)sc2c1c(=O)n(C(C)(C)C(=O)O)c(=O)n2C[C@H](O[C@@H](C)CO)c1ccccc1` [I-185, 2-[1-[(2R)-2-[[(2S)-1-hydroxypropan-2-yl]oxy]-2-phenylethyl]-5-methyl-6-(1,3-oxazol-2-yl)-2,4-dioxo-1H,2H,3H,4H-thieno[2,3-d]pyrimidin-3-yl]-2-methylpropanoic acid], which IC50 is on record?
Its IC50 is less than 1 µM.

With `CCOC(=O)c1sc2c(c1C)c(=O)n(C(C)(C)C(=O)O)c(=O)n2C[C@H](OC(C)(C)C)c1ccccc1` [I-127, 2-[1-[(2R)-2-(tert-butoxy)-2-phenylethyl]-6-(ethoxycarbonyl)-5-methyl-2,4-dioxo-1H,2H,3H,4H-thieno[2,3-d]pyrimidin-3-yl]-2-methylpropanoic acid] as the compound, how does the IC50 read?
The IC50 was 20 to 50 µM.

For `COC(=O)c1sc2c(c1C)c(=O)n(CCO)c(=O)n2CCc1c(F)cccc1F` [I-25], which IC50 is on record?
The IC50 was greater than 50 µM.

`Cc1c(C2=NCCO2)sc2c1c(=O)n(CC(=O)O)c(=O)n2CCc1ccccc1` [I-87, 2-[6-(4,5-dihydro-1,3-oxazol-2-yl)-5-methyl-2,4-dioxo-1-(2-phenylethyl)-1H,2H,3H,4H-thieno[2,3-d]pyrimidin-3-yl]acetic acid] was tested. Which IC50 did it give?
The IC50 was less than 5 µM.

How did the IC50 turn out when `CCOC(=O)c1sc2c(c1C)c(=O)n(C(C)(C)C(=O)O)c(=O)n2C[C@H](OC(C)C)c1ccc(I)cc1` [I-129, (R)-2-(6-(ethoxycarbonyl)-1-(2-(4-iodophenyl)-2-isopropoxyethyl)-5-methyl-2,4-dioxo-1,2-dihydrothieno[2,3-d]pyrimidin-3(4H)-yl)-2-methylpropanoic acid] was run?
Its IC50 is 5 to 20 µM.

How did the IC50 turn out when `CCOC(=O)c1sc2c(c1C)c(=O)n(CC(C)(C)O)c(=O)n2CCc1ccccc1` [I-79, ethyl 3-(2-hydroxy-2-methylpropyl)-5-methyl-2,4-dioxo-1-(2-phenylethyl)-1H,2H,3H,4H-thieno[2,3-d]pyrimidine-6-carboxylate] was run?
The IC50 was 5 to 20 µM.

Which IC50 does the source give for `Cc1c(-c2ncco2)sc2c1c(=O)n(C(C)(C)C(=O)O)c(=O)n2C[C@H](OC(=O)N1CC(O)C1)c1ccccc1` [I-230, 2-[1-[(2R)-2-[(3-hydroxyazetidin-1-yl)carbonyloxy]-2-phenylethyl]-5-methyl-6-(1,3-oxazol-2-yl)-2,4-dioxo-1H,2H,3H,4H-thieno[2,3-d]pyrimidin-3-yl]-2-methylpropanoic acid] here?
The IC50 was less than 5 µM.

With `CCOC(=O)c1sc2c(c1C)c(=O)n(CC(=O)O)c(=O)n2Cc1ccc2c(c1)OCO2` [I-50, 2-[1-(2H-1,3-benzodioxol-5-ylmethyl)-6-(ethoxycarbonyl)-5-methyl-2,4-dioxo-1H,2H,3H,4H-thieno[2,3-d]pyrimidin-3-yl]acetic acid] as the compound, how does the IC50 read?
The IC50 was greater than 50 µM.

Which IC50 does the source give for `CCOC(=O)c1sc2c(c1C)c(=O)n(C[C@@H](C)O)c(=O)n2CCc1ccccc1` [I-81, ethyl 3-[(2R)-2-hydroxypropyl]-5-methyl-2,4-dioxo-1-(2-phenylethyl)-1H,2H,3H,4H-thieno[2,3-d]pyrimidine-6-carboxylate] here?
The IC50 was 5 to 20 µM.

For `Cc1c(-c2ncco2)sc2c1c(=O)n(C(C)(C)C(=O)O)c(=O)n2C[C@H](O[C@H]1CCCC[C@@H]1C)c1ccccc1` [I-152, 2-methyl-2-[5-methyl-1-[(2R)-2-[[(1S,2S)-2-methylcyclohexyl]oxy]-2-phenylethyl]-6-(1,3-oxazol-2-yl)-2,4-dioxo-1H,2H,3H,4H-thieno[2,3-d]pyrimidin-3-yl]propanoic acid], which IC50 is on record?
The IC50 was less than 1 µM.

For `CCOC(=O)c1sc2c(c1C)c(=O)n(CC(=O)O)c(=O)n2CCc1ccccc1Br` [I-54, 2-[1-[2-(2-bromophenyl)ethyl]-6-(ethoxycarbonyl)-5-methyl-2,4-dioxo-1H,2H,3H,4H-thieno[2,3-d]pyrimidin-3-yl]acetic acid], which IC50 is on record?
The IC50 was 5 to 20 µM.

For `CCOC(=O)c1sc2c(c1C)c(=O)n(CC(=O)O)c(=O)n2Cc1cc2ccccc2[nH]1` [I-88, 2-[6-(ethoxycarbonyl)-1-(1H-indol-2-ylmethyl)-5-methyl-2,4-dioxo-1H,2H,3H,4H-thieno[2,3-d]pyrimidin-3-yl]acetic acid], which IC50 is on record?
The IC50 was greater than 50 µM.
